Results reported in PMC6216040, “Repurposing of an old drug: In vitro and in vivo efficacies of buparvaquone against Echinococcus multilocularis” (International Journal for Parasitology: Drugs and Drug …, 2018).
Converted amounts (≈) assume the structure as drawn. Read-outs that look alike come from different tables or passages of the source.

Key:
[1] = system: E. multilocularis metacestodes; test: PGI-assay: drug-induced damage on in vitro cultured metacestodes (Pathogen Box screening cascade and EC50); format: cell-based, Echinococcus multilocularis; conditions: for activity in the present in vitro screen (threshold 20% relative activity compared to Tx-100) / activity in the screen at 10 μM (confirmed in triplicates, >20% relative PGI release): 10 μM; for activity against metacestodes at 1 μM / PGI release, % of Tx-100 control, average, 5d / PGI release, % of Tx-100 control, average, 12d: triplicates; for PGI release, % of Tx-100 control, average, 5d / PGI release, % of Tx-100 control, average, 12d: 1 µM; for activity in the screen at 10 μM (confirmed in triplicates, >20% relative PGI release): 5 and 12 days; for toxicity against E. multilocularis metacestodes compared with host cells (HFF, RH): comparison of EC50 with IC50 on mammalian cells; for EC50: read-out: E. multilocularis EC50, PGI-assay, 5 days in vitro; for PGI release, % of Tx-100 control at 10 µM: confirmatory screening at 10 µM in triplicates, values as % of Tx-100 control
[2] = system: E. granulosus; set-up: method as in Kammerer and Perez-Esandi, 1975; Miyaji et al., 1993; conditions: ref Kammerer and Perez-Esandi, 1975; Miyaji et al., 1993; cited from earlier work
[3] = system: E. multilocularis metacestodes; test: Vesicle viability assay by Alamar Blue (MIC); format: cell-based, Echinococcus multilocularis
Description: The setup was the same as for PGI-assay EC50 calculations and it was performed in triplicates. […] Data was used to calculate the minimal inhibitory concentrations (MICs) of these compounds on metacestodes.

[4] = system: Reuber rat hepatoma (RH) cells; test: Cytotoxicity by Alamar Blue assay in rat hepatoma cells; format: cell-based; conditions: 120 h
[5] = system: human foreskin fibroblasts (HFF); test: Cytotoxicity by Alamar Blue assay in human foreskin fibroblasts; conditions: for IC50: Homo sapiens, Fibroblast, 120 h
[6] = system: E. multilocularis metacestodes; conditions: 2006, cited from earlier work; for effect in vitro against E. multilocularis metacestodes: ref Reuter et al.
[7] = Echinococcus multilocularis, 120 h, 10 µM, singlets, 5 days of incubation, read-out: PGI release, % of the Tx-100 control, 5d
[8] = Echinococcus multilocularis, 288 h, 10 µM, singlets, 12 days of incubation, read-out: PGI release, % of the Tx-100 control, 12d
[9] = Echinococcus multilocularis, 120 h, read-out: PGI release, % of Tx-100 control, average, 5d
[10] = Echinococcus multilocularis, 120 h, read-out: PGI release, % of the Tx-100 control, 5d
[11] = Echinococcus multilocularis, 288 h, read-out: PGI release, % of Tx-100 control, average, 12d
[12] = Echinococcus multilocularis, 288 h, read-out: PGI release, % of the Tx-100 control, 12d
[13] = read-out: HFF preconfluent IC50

Row | SMILES | activity in the present in vitro screen (threshold 20% relative activity compared to Tx-100) [1] | cytotoxicity at 10 µM [1, 7] [%] | cytotoxicity at 10 µM [1, 8] [%] | activity against metacestodes at 1 μM [1] | PGI release, % of Tx-100 control, average, 5d ([1]; 5 days of incubation) [%] | PGI release, % of Tx-100 control, average, 12d ([1]; 12 days of incubation) [%] | activity in the screen at 10 μM (confirmed in triplicates, >20% relative PGI release) [1] | cytotoxicity at 10 µM [1, 9] [%] | cytotoxicity at 10 µM [1, 10] [%] | cytotoxicity at 10 µM [1, 11] [%] | cytotoxicity at 10 µM [1, 12] [%] | toxicity against E. multilocularis metacestodes compared with host cells (HFF, RH) [1] | IC50 ([4]; read-out: RH confluent IC50) [nM] | IC50 ([4]; read-out: RH preconfluent IC50) [nM] | IC50 ([5]; read-out: HFF confluent IC50) [nM] | IC50 [5, 13] [nM] | effect in vitro against E. multilocularis metacestodes [6] | also measured
1 | Cc1ccc(C(=O)Nc2ccc(S(=O)(=O)O)c3cc(S(=O)(=O)O)cc(S(=O)(=O)O)c23)cc1NC(=O)c1cccc(NC(=O)Nc2cccc(C(=O)Nc3cc(C(=O)Nc4ccc(S(=O)(=O)O)c5cc(S(=O)(=O)O)cc(S(=O)(=O)O)c45)ccc3C)c2)c1 [MMV637953, Suramin, reference compound] | inactive | 0.85 | 0.51 |  |  |  |  |  |  |  |  |  |  |  |  |  |  | effect in vivo against E. granulosus [2]: did not show any effects
2 | O=C(Nc1cc(C(F)(F)F)cc(C(F)(F)F)c1)c1cc(Cl)ccc1O [MMV687807] |  |  |  | distinct in vitro activities | 40.83 | 59.00 | active | 58.5 | 30.8 | 74.5 | 64.7 | could only exhibit a potential therapeutic window for RH cells | 20100 | 1270 | 370 | 150 |  | MIC ([3]; Echinococcus multilocularis, 288 h, read-out: E. multilocularis MIC, Alamar Blue vesicle viability assay, 12 days of incubation): < 1 µM; toxicity against HFF (in words) ([5]; among the four compounds): highest toxicity against HFF
3 | Cc1[nH]c2cc(F)cc(F)c2c(=O)c1-c1ccc(Oc2ccc(OC(F)(F)F)cc2)cc1 [MMV671636, ELQ-400] |  |  |  | distinct in vitro activities | 56.00 | 70.43 | active | 5.44 | 6.52 | 76.1 | 24 | specific toxicity | 2070 | 250 | 74800 | 12300 |  | IC50 ([1]; Echinococcus multilocularis, read-out: IC50 against in vitro cultured E. multilocularis metacestodes): 20 nM; EC50 [1]: 20 nM; EC50 ([1]; listed as MMV671363): < 1000 nM; E. multilocularis MIC ([3]; Alamar Blue vesicle viability assay, 12 days of incubation, listed as MMV671363): below 1 μM; MIC ([3]; Alamar Blue vesicle viability assay, 12 days of incubation, read-out: E. multilocularis MIC): 0.01 µM (≈ 0.00447 µg/mL)
4 | CC(=O)Oc1ccccc1C(=O)Nc1ncc([N+](=O)[O-])s1 [MMV688991, Nitazoxanide, reference compound] |  | 57.7 | 75.5 | did not maintain its activity | 1.35 | 11.08 | active |  |  |  |  |  |  |  |  |  |  | PGI release, % of Tx-100 control at 10 µM ([1]; Echinococcus multilocularis, 120 h, 5 days of incubation, read-out: PGI release, % of Tx-100 control, average, 5d): 54.7%; PGI release, % of Tx-100 control at 10 µM ([1]; Echinococcus multilocularis, 288 h, 12 days of incubation, read-out: PGI release, % of Tx-100 control, average, 12d): 71.7%; concentration shown to be active in vitro against metacestodes ([6]; ref Stettler et al., 2003, Reuter et al.): 3.3 µM
5 | CCCCCCCCCCCCCCCCOP(=O)([O-])OCC[N+](C)(C)C [MMV688990, Miltefosine, reference compound] | inactive | -1.11 | -5.17 |  |  |  |  |  |  |  |  |  |  |  |  |  | ineffective | 
6 | CO[C@H]1/C=C/O[C@@]2(C)Oc3c(C)c(O)c4c(O)c(c(/C=N/N5CCN(C)CC5)c(O)c4c3C2=O)NC(=O)/C(C)=C\C=C\[C@H](C)[C@H](O)[C@@H](C)[C@@H](O)[C@@H](C)[C@H](OC(C)=O)[C@@H]1C [MMV688775, Rifampicin, reference compound] | inactive | -0.7 | -1.35 |  |  |  |  |  |  |  |  |  |  |  |  |  | ineffective | 
